By melting point is commonly meant the temperature, or range, at which the solid turns liquid.

As to `CCOC(=O)c1c(C2CC2)nc(CC)n1Cc1ccc2oc(-c3ccccc3-c3nnn[nH]3)c(Br)c2c1`, the melting point lay within 132 to 137 °C.

The compound `CNC(=O)[C@H](O)[C@@H](Sc1ccccc1N)c1ccc(OC)cc1` displayed a melting point of 145 to 147 °C.

For the compound `Cc1nc2c(N)cc(C(=O)N(C)C)cc2n1C`, the melting point lay in the range of 230 to 234 °C.

In turn, `COc1cc(C(C)C)c2c(c1)S(=O)(=O)N(COc1cc(C#N)nn1-c1ccc(Cl)cc1Cl)C2=O` registered a melting point of 183 to 184 °C.

As for `CC(C)(C)OC(=O)N[C@@H](COc1ccccc1N)C(=O)O`, the melting point was 90 to 91 °C.

`O=C(Nc1ccc(C(=O)N2Cc3ccccc3Cc3ccccc32)cc1)c1ccccc1OC(F)(F)F`: the melting point fell in the range of 232 to 235 °C.

For the compound `Cc1c(S(=O)(=O)c2ccc(=O)[nH]n2)oc2ccc(C(F)(F)F)cc12`, the melting point was 244 to 245 °C.

Take `CCC(=O)NC[C@H]1CN(c2ccc(C3C=CS(=O)(=O)CC3)cc2)C(=O)O1` (some centres not stated): the melting point fell in the range of 144 to 147 °C.

`CCCCCc1cnc(-c2ccc(N=C=S)cc2)nc1` registered a melting point of 46 °C.

The compound `O=Nc1c(-c2ccccc2)nc2sccn12` displayed a melting point of 175 to 177 °C.

`Cc1cccc(-c2nc(C(C)(C)C)n(C)n2)n1` gave a melting point of 106 °C.

`COc1cc(Nc2c(C#N)cnc3cc(-c4coc(C=O)c4)c(OC)cc23)c(Cl)cc1Cl` yielded a melting point of 238 to 241 °C.

For the compound `CCOC(=O)c1ccc(/C=C/c2ccc(O)c(C3(C)CCCCC3)c2)cc1`, the melting point came out at 149 °C.

`CCCCCCCCCCCc1nc2c(O)c(Cl)c(C)c(Cl)c2cc1CCCCCCCCCC`: the melting point was 54.5 to 56 °C.

The compound `CC1=C(C(=O)OCCN(C)Cc2ccccc2)C(c2cccc([N+](=O)[O-])c2)C(P(=O)(OC(C)C)OC(C)C)=C(C)N1` (configuration not stated) came in with a melting point of 113 to 115 °C.

As to `CCCn1nc(C(C)C)c(C(=O)OCC)c1Cc1ccc(-c2ccccc2S(=O)(=O)NC(=O)c2ccccc2)cc1`, the melting point lay within 159 to 160 °C.

For the compound `Oc1ccccc1-c1cc(-c2ccc3c(c2)OCO3)cc(-c2ccc3ccccc3c2)n1`, the melting point was 195 to 196 °C.

Turning to `CC(NC(=O)OC(C)(C)C)C1CCN(c2c(F)cc3c(=O)[nH]c(=O)n4c3c2CCC4C)C1` (configuration not stated), the melting point was in the range of 123 to 125 °C.

The compound `c1ccc2c(c1)nc(-c1ccc3c(c1)OCO3)n2CCC1CCCCC1` gave a melting point of 110 to 111 °C.

`CCn1cc(C=O)c(OCc2ccc(OCc3nc(-c4ccco4)oc3C)c(OC)c2)n1`: the melting point lay in the range of 103 to 104 °C.

Take `CCCc1cc2c(=O)n3cc(C(N)=O)ccc3nc2s1`: the melting point was 260 to 264 °C.

In the case of `CCCc1c(OCCCOc2cccc(NC(=O)C(=O)O)c2C)ccc(C(C)=O)c1O`, the melting point is 146 to 148 °C.

Regarding `COCc1ncnc(Cl)c1C`, the melting point fell in the range of 37 to 38 °C.

The compound `CCCCCC(=O)c1c[nH]c2ccccc12` yielded a melting point of 153 to 154 °C.

Compound `CCSc1nc(O)ns1` came in with a melting point of 129 °C.

Compound `N#CCc1ccc(C(=O)C2CC2)cc1` had a melting point of 86 to 87 °C.

As to `CCOP(=O)(OCC)C(c1ccccc1)c1ccccc1C(F)(F)F` (configuration not stated), the melting point lay in the range of 127 to 130 °C.

`O=C(OCc1ccccc1)N1CCC(O)(Cn2nc(-c3c(-c4ccccc4)nn4ccccc34)ccc2=O)CC1` had a melting point of 176 to 177 °C.

In turn, `Cc1cc(Oc2ccc(N)cc2)c2ncccc2c1` had a melting point of 184 to 185 °C.

With `CCOC(=O)COc1ccc(NS(C)(=O)=O)cc1OC`, the melting point lay in the range of 118 to 119 °C.

In turn, `Cc1cc2cn[nH]c2c(C(=O)NC2(C3CC3)CC2)c1NC(=O)c1cc(OCC(F)(F)F)nn1-c1ncccc1Cl` displayed a melting point of 240 to 242 °C.

As for `CCCCC1(SCC)CCC2C3CCC4=CC(=O)C=CC4(C)C3(F)C(O)CC21C` (configuration not stated), the melting point lay in the range of 185 to 187 °C.

`COc1ccc(-n2nc(CCC(=O)N(C)O)cc2-c2ccc(F)cc2)cc1` gave a melting point of 151 to 154 °C.

Turning to `CCCCc1nc2cscc2n1Cc1ccc(-c2ccccc2C(=O)O)cc1`, the melting point was 168 °C.

For `c1ccc2nc(N3CCNCC3)cnc2c1`, the melting point was in the range of 74 to 76 °C.

`COC(=O)C(C)c1ccc2c(c1)Cc1cc([N+](=O)[O-])ccc1-2` (configuration not stated) had a melting point of 105 to 107 °C.

Compound `Nc1cc(F)cc2cc(C(=O)NCC(F)(F)C(F)(F)C(F)(F)F)cnc12` displayed a melting point of 202 to 204 °C.

Compound `Cc1cc(O)c(S(=O)Cc2ccc(F)cc2)c(=O)o1` (configuration not stated) came in with a melting point of 127 to 128 °C.

`CCOC(=O)COc1ccc(C(=O)Nc2ccccc2Sc2ccc(-c3nnn[nH]3)cc2)cc1`: the melting point lay within 148 to 149 °C.

Regarding `CCOC(=O)c1ccc(Oc2cccc3[nH]c4cnc(C(=O)OC(C)C)c(COC)c4c23)o1`, the melting point is 191 to 192 °C.

Compound `FC(F)(F)c1nc(Cl)c2ccccc2n1` showed a melting point of 62 to 63.5 °C.

The compound `CC(C)(C)OC(=O)NNCc1ccc(-c2ccccc2)cc1` came in with a melting point of 84 to 85 °C.

As for `O=c1nc(N(Cc2ccccc2)c2ccccc2)sc2ncccc12`, the melting point was 137 to 138 °C.

Regarding `CCCCNc1nc2c(C(=O)OCC)cnn2c2c1cnc1c2cnn1CC`, the melting point lay within 275 to 277 °C.

On to `CC(=O)OCC1OC(n2cnc3c(Cl)nc(N)nc32)C(OC(C)=O)C1OC(C)=O` (configuration not stated), for which the melting point lay in the range of 58 to 60 °C.

`N#CC1c2ccccc2Sc2ccccc21` yielded a melting point of 103 to 105 °C.

`Cc1cnc(-c2cc3c(OC[C@@H](O)CN4CCC(c5ccc6ccccc6c5)CC4)cccc3s2)o1` displayed a melting point of 138 to 139 °C.

As to `Nc1ccc(Oc2ccc(C(=O)O)c(O)c2)cc1`, the melting point is 187 to 188 °C.

As to `CS(=O)(=O)c1ccc(-n2ncc(C#N)c2-c2ccc(-c3ccco3)cc2)cc1`, the melting point lay within 229 to 230 °C.

In turn, `CC(C)(C)OC(=O)N1Cc2cscc2C1` had a melting point of 36 to 38 °C.

In turn, `CCN(CC)C(=O)c1c(Cl)cccc1C(=O)Nc1ccc(Cn2nc(C(F)(F)F)cc2C(F)(F)F)cc1C` returned a melting point of 105 to 107 °C.

On to `CC(=O)N1CCc2ccc(C(O)CCCN3CCC(c4ccc(Cl)cc4)CC3)cc2CC1` (configuration not stated), for which the melting point is 113 to 114 °C.

Take `COc1ccc(Cn2nnnc2C(O)c2ccccc2C)cc1` (racemic): the melting point was 90 to 92 °C.

With `Cn1cc(C(=O)NCc2ccc(Cl)cc2)c(=O)c2cc(CN3CC4CC3CO4)ccc21` (configuration not stated), the melting point fell in the range of 162 to 163 °C.

For the compound `CC(=O)Oc1ccc(C(=O)O)cc1C`, the melting point lay in the range of 169 to 171 °C.

Regarding `COC(=O)C(Sc1ccc(Cl)cc1)c1ccc(Oc2ccc(Cl)cc2)cc1` (configuration not stated), the melting point is 71 to 75 °C.

`COc1cc2c(c(OC)c1OC)CN(CCc1ccc([N+](=O)[O-])cc1)CC2` came in with a melting point of 110 °C.

`Cc1cc(-c2nc3ccccc3[nH]2)n[nH]1` had a melting point of 322 to 324 °C.

For `CCOc1cccc(CC(=O)O)c1OCCCc1cn(-c2ccc(C(F)(F)F)cn2)nc1OCC`, the melting point was in the range of 114 to 115 °C.

In turn, `Cc1cnc(NS(C)(=O)=O)cc1C(c1cc(F)ccc1F)S(=O)(=O)c1ccc(Cl)cc1` (configuration not stated) came in with a melting point of 214 to 217 °C.

Compound `O=C1Cc2c(ccc3c(CCC4CCN(Cc5ccccc5)CC4)noc23)N1` registered a melting point of 188 to 189 °C.

Compound `COc1ccc2[nH]c(C)c(C(C)=O)c2c1` had a melting point of 156 to 158 °C.

Source of the values: a melting point compilation (Tetko et al.; mined from patent text by program, amines drawn as free bases though some values may be those of a salt).
